# Experimental data published in patent publication US12163169B2, “Inducible chimeric cytokine receptors” (Allogene Therapeutics, Inc., priority 2018, dated 2024).
# Entries after “also recorded” stand apart in the source; their conditions may differ.
# What was measured:
# [1] = test system: CAR T cells; test: Target-independent AP1903-driven CAR T cell expansion, 2-week culture (Example 11); format: cell-based, human; conditions: FKBP switch CAR T cells, IL7R(316-459)/IL12Rb2(775-825) cytotails; reference IL-7 and IL-12p70 10 ng/mL each; 2 weeks
# Procedure: Control CAR T cells or FKBP switch CAR T cells bearing IL7R(316-459)/IL12Rb2(775-825) cytotails were cultured with the indicated concentrations of AP1903, and in the absence of exogenous cytokines (unless specified in the case of positive controls) or target cells for 2 weeks. As a positive control, CAR T cells were alternatively supplemented with exogenous recombinant IL-7 (10 ng/mL; Miltenyi) and IL-12p70 (10 ng/mL; Biolegend) to mimic the dual IL-7R/IL12Rb2 outputs transmitted by FKBP switch activation. At the end of the 2-week culture, the number and quality of surviving CAR T cells were determined. Briefly, duplicate samples from each culture condition cells were harvested and stained using the Zombie NIR Fixable Viability Kit (Biolegend). Samples were washed with PBS, Fc blocked, then stained with the following antibody cocktail diluted in PBS+1% BSA: BUV395-conjugated anti-human CD3, BV510-conjugated anti-human CD8, BV605-conjugated human CD4 and FITC-conjugated v5 tag (for CAR detection), PE/Cy7-conjugated anti-human CD62L (Biolegend) and BV785-conjugated anti-human CD45RO (Biolegend). Finally, samples were washed in PBS and cell pellets were resuspended in 130 uL PBS+1% BSA containing 123count eBeads counting beads (Thermo Fisher) (10 uL counting beads in 120 uL PBS+1% BSA) prior to FACS analysis.
# [2] = target: FKBP12 containing the F36V mutation (Homo sapiens, UniProt P62942, F37V); conditions: literature (Jemal 2008; Scher and Kelly 1993); cited from earlier work
# [3] = target: T1, BCMA ectodomain cytokine receptor (Homo sapiens, UniProt Q02223); test: HEK293T Stat reporter assay of BCMA ectodomain cytokine receptor with soluble APRIL trimers (Example 14); format: cell-based; conditions: 5 hours post-treatment; FIGS. 37C-37D
# T1 construct: such as BCMA(1-54), TACI(1-165) and BAFFR(1-78); expressed in transfected cells; host or cells: HEK293T
# T1 sequence (Q02223 1-54): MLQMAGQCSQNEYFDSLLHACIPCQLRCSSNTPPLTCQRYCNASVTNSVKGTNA
# Excerpt: (§1) To test if the panel of ligand inducers and ectodomains can be further extended beyond the AP1903-FKBP(F36V) pairing, we tested signaling in response to other multimeric ligand inducers. As the Tumor Necrosis Family (TNF) superfamily of ligands are trimers, they engage their respective receptors in a multimeric fashion. Therefore, we fused ectodomains derived from the TNFR2 superfamily receptors, such as BCMA(1-54), TACI(1-165) and BAFFR(1-78), to the transmembrane and signaling domains of our chimeric cytokine receptors, and tested signaling in response to soluble trimeric ligand. Briefly, 20,000 HEK293T cells were plated into each well of a poly-L-lysine-coated 96-well flat-bottom plate and allowed to adhere overnight. The chimeric cytokine receptor (2.5 ng), a Stat response element that drives Firefly Luciferase (100 ng; Promega) and Renilla Luciferase control reporter vector (1 ng; Promega) were mixed in a final volume of 5 uL in Opti-MEM (Gibco) (“DNA mix”). 0.3 uL Lipofectamine 2000 (Invitrogen) in 5 uL Opti-MEM was incubated at room temperature for 5 minutes and then added to the DNA mix. […] 24 hours after transfection, cells were either left untreated, or treated with soluble BAFF or APRIL trimers diluted in serum-free media, and Stat reporter activity was determined 5 hours post-treatment using the Dual-Glo Luciferase Assay System (Promega). […]
# [4] = test system: BCMA(1-54), TACI(1-165) and BAFFR(1-78) ectodomain chimeric cytokine receptors; test: HEK293T Stat reporter assay of TNFR2 superfamily ectodomain receptors with soluble BAFF trimers (Example 14); format: cell-based; conditions: 5 hours post-treatment
# Excerpt: as §1
# [5] = test system: STAT5; test: STAT5 signaling by IL7Ra, IL2Rb and IFNAR2 derived cytotail fragments (Example 6, FIG. 11); format: cell-based; conditions: EpoR(237-338; L241G, L242P) tyrosine kinase activating domain, short (8 h) AP1903 treatment
# Procedure: In this study, IL2Rb, IL7R, and […] cytotails were analyzed to identify tyrosines sufficient for key aspects of signaling. For instance, a segment of IL2Rb containing the STAT5-interacting tyrosines Y418 and Y436 might retain STAT5 signaling, but may lose PI3K signaling as this requires Y364 of the IL2Rb cytotail. Inducible chimeric cytokine receptors comprising the IL7R, IL2Rb, and IFNAR2 tails may include one or more tyrosine motifs within the cytotails. Elimination of one or more portions of the tail (e.g., the IL12Rb2 tail) in some cases results in removal of negative regulatory motifs and stronger signaling.
# In this study, signaling by a variety of IL7Ra and IL2Rb derived fragments using the EpoR-based tyrosine kinase activating domain were tested. The following inducible chimeric cytokine receptors were tested in this study:
# Constructs that are plotted include tyrosine effector domains derived from the IL7R and IL2Rb cytotails.
# [6] = test system: STAT5; test: STAT5 luciferase reporter assay of small-molecule inducible Epo receptors in HEK293T cells (Example 2); format: cell-based; conditions: AP1903 added vs no ligand, FIG. 4
# Excerpt: According to the construct name, receptors contain a membrane-targeting motif (CD8 signal sequence (CD8 SS) or myristoyl), a dimerization domain (FKBP(F36V) or mutants thereof), a portion of the EpoR that contains a transmembrane (EpoR(237-272)), a JAK2 binding motif (EpoR(273-338)), and/or a tyrosine effector domain (EpoR(339-508)). Constructs may also include epitope tags (Myc or V5) for western blot or flow analyses.
# Vectors encoding the inducible chimeric cytokine receptors were transfected into HEK293T cells along with a luciferase reporter for the STAT5 transcription factor (Promega E4651). The reporter vector consists of a firefly luficerase expressed under the control of a STAT5 responsive DNA element. Upon addition of erythropoietin (Epo), the erythropoietin receptor (EpoR) activates the JAK2 kinase which then phosphorylates tyrosines on the EpoR cytotail to generate binding sites for STAT5. […] Epo was added to samples with cells transfected with EpoR, and AP1903 was added to the samples with cells transfected with fusions of the EpoR to FKBP. No Epo or AP1903 was added to samples to assess baseline signaling. In FIG. 4, “ligand” is either Epo or AP1903.
# Chain of FKBP12 containing the F36V mutation (P62942 2-108 F37V): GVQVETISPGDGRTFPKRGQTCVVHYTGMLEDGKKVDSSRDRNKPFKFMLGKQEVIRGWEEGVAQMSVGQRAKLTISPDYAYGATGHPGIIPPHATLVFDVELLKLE
compound,measurement,setting,value
CC[C@H](C(=O)N1CCCC[C@H]1C(=O)O[C@H](CCc1ccc(OC)c(OC)c1)c1cccc(OCC(=O)NCCNC(=O)COc2cccc([C@@H](CCc3ccc(OC)c(OC)c3)OC(=O)[C@@H]3CCCCN3C(=O)[C@@H](CC)c3cc(OC)c(OC)c(OC)c3)c2)c1)c1cc(OC)c(OC)c(OC)c1 [AP1903],AP1903 concentration sufficient to reach the level of expansion achieved by exogenous cytokine supplementation,[1],≤ 1 ng/mL
same,binding affinity to FKBP12 containing the F36V mutation,[2],high affinity; also recorded: much higher affinity than wild-type FKBP12
"APRIL: soluble APRIL trimers, TNF superfamily ligand",downstream Stat activation,[3],induced downstream Stat activation
"BAFF: soluble BAFF trimers, TNF superfamily ligand",Stat5 reporter activity,[4]; FIG. 37C,induced Stat5 and Stat4 activation
same,Stat4 reporter activity,[4]; FIG. 37D,induced Stat5 and Stat4 activation
"CD8 SS-Myc-FKBP(F36V)-EpoR(237-338; L241G, L242P)-IL2Rb(393-433, 518-551): inducible chimeric cytokine receptor",STAT5 signaling of cytotail fragments,[5],far greater signaling
"CD8 SS-Myc-FKBP(F36V)-EpoR(237-338; L241G, L242P)-IL7R(376-416, 424-459; Y456F): inducible chimeric cytokine receptor",STAT5 signaling of cytotail fragments,[5],fully recreated
"CD8 SS-Myc-FKBP(F36V)-EpoR(237-508; L241G, L242P)-V5: inducible chimeric cytokine receptor",STAT5 reporter signaling with ligand,[6],closest to the EpoR(1-508) positive control; also recorded: robust activity
